The record followed here is PubChem BioAssay AID816 (SRMLSC, 2007).

Active and inactive are the calls of the source. How the calls were made is not given here. Some results are limits rather than exact numbers.

The subject of this assay is S. cerevisiae GAL1 promoter reporter activation counterscreen. The experiment in a line: yeast Gal1p promoter activation – S. cerevisiae, artefact control for yeast lifespan extension project (AID 816).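 Further: yeast growth read after 24 h of incubation with compounds.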
One may read the EC50 as the concentration that produces a half-maximal response. `CCCn1[nH]cc(SC)c(=O)c1=O`: the EC50 was > 40 µM (inactive).
As to `Cn1nnnc1SCCNCC#Cc1ccccc1`, the EC50 is > 40 µM (inactive).
The figure for `CCOc1ccc(NCc2nc3ccccc3n2CCOc2ccccc2)cc1` is > 40 µM (inactive).
In the case of `C=CCn1c(-c2ccc(OC)cc2)csc1=Nc1c(C)n(C)n(-c2ccccc2)c1=O` it was > 40 µM (inactive); in that of `CCOc1ccc(/C=C/C(=O)c2c(O)c3ccccc3oc2=O)cc1`, > 40 µM (inactive).
In the case of `COc1ccc(CN2C(=O)/C(=C/c3ccncc3)SC2=S)cc1` it was > 40 µM (inactive).
On to `O=C1c2ccccc2C(Nc2ccc3c(c2)OCCO3)N1c1ccccn1` (configuration not stated), for which the EC50 was > 40 µM (inactive).
With `C[C@]12CC[C@@H]3c4ccc(O)cc4CC[C@H]3[C@@H]1CC[C@@H]2OC(=O)CCC(=O)O`, the EC50 is > 40 µM (inactive).
Regarding `CC1CC(C)CN(S(=O)(=O)c2cccc(C(=O)N3C(=O)c4cccc(N)c4C3=O)c2)C1` (configuration not stated), the EC50 is > 40 µM (inactive).
In the case of `Cc1ccc(C(=O)OC2=CC(=O)CC(C)(C)C2)cc1` it was > 40 µM (inactive); in that of `COc1cc(Br)cc(-c2nc3c(c(=O)[nH]c(=O)n3Cc3ccccc3)n2C)c1O`, > 40 µM (inactive).
In the case of `Cc1c(O)c(S(=O)c2ccccc2)c(=O)n(-c2ccccc2)c1-c1ccccc1` (configuration not stated) it was > 40 µM (inactive); in that of `Cc1cccc(N2C(=O)C(Oc3ccc(Cl)cc3Cl)C2C=O)c1C` (configuration not stated), > 40 µM (inactive).
Take `COn1c(SC2CCCCC2)nc2ccccc2c1=O`: the EC50 is > 40 µM (inactive).
In the case of `Cc1cccc(OC(=O)n2c(=S)oc3cc(Cl)ccc32)c1` it was > 40 µM (inactive); in that of `Cc1ccccc1OC(=O)n1c(=S)oc2cc(Cl)ccc21`, > 40 µM (inactive); in that of `CC(C)c1ccc2occ(-c3nn[nH]n3)c(=O)c2c1`, > 40 µM (inactive).
As for `COc1ccc(C(CNC(=O)c2cccc(Br)c2)N2CCCC2)cc1` (configuration not stated), the EC50 is > 40 µM (inactive).
In the case of `O=C1ON=C(c2ccccc2)/C1=C/c1ccc(-c2ccccc2[N+](=O)[O-])o1` it was > 40 µM (inactive).
In the case of `COc1ccc(/C(O)=C/C(=O)C(=O)Nc2c(C)n(C)n(-c3ccccc3)c2=O)cc1` it was > 40 µM (inactive); in that of `CN(C)CC(C(=O)c1ccccc1)c1ccccc1` (configuration not stated), > 40 µM (inactive); in that of `CCOC(=O)c1c(NC(=O)C2C3C=CC(C3)C2C(=O)O)sc2c1CCC(CC)C2` (configuration not stated), > 40 µM (inactive).
Regarding `O=C1c2ccccc2-c2onc3c(Oc4ccccc4)cc(O)c1c23`, the EC50 was > 40 µM (inactive).
The figure for `CCCn1c(SCC(=O)c2ccc3c(c2)NC(=O)CO3)nc2ccccc21` is > 40 µM (inactive).
The figure for `CCOc1ccccc1/C=c1\sc2ncnn2c1=O` is > 40 µM (inactive).
Turning to `ClC(Cl)(c1nnnn1-c1ccccc1)c1nnnn1-c1ccccc1`, the EC50 is > 40 µM (inactive).
For the molecule `Cc1c(NC(=O)C(=O)/C=C(/O)c2ccccc2)c(=O)n(-c2ccccc2)n1C`, the EC50 is > 40 µM (inactive).
`O=C(NC(=S)NNS(=O)(=O)c1ccccc1)c1ccc([N+](=O)[O-])cc1`: the EC50 is > 40 µM (inactive).
The figure for `CCN1C(=O)C(=Cc2ccc(C)s2)C(=O)N(CC)C1=S` is > 40 µM (inactive); for `CC(=O)[C@H]1[C@H](c2cccc(Cl)c2)C(C#N)(C#N)[C@@H]2c3ccccc3C=CN21` it is > 40 µM (inactive); for `CCOc1ccc(C2=NNC(c3cccs3)=Nc3ccc(OCC)cc32)cc1` it is > 40 µM (inactive).
In the case of `COc1ccc(CNC(=O)c2c(O)c3cccc4c3n(c2=O)CCC4)cc1`, the EC50 was > 40 µM (inactive).
With `COc1cccc(CSc2nc3ccccc3cc2C=O)c1`, the EC50 was > 40 µM (inactive).
For `Cc1cc(C)nc(SCc2cc(=O)c(OC(=O)c3ccco3)co2)n1`, the EC50 is > 40 µM (inactive).
As for `CCc1ccc(CC2S/C(=C(\C#N)C(C)=O)NC2=O)cc1` (configuration not stated), the EC50 was > 40 µM (inactive).
In the case of `CC(c1ccccc1)N1CCn2c(nc3cc(NC(=O)c4cccs4)ccc32)C1` (configuration not stated) it was > 40 µM (inactive); in that of `COc1ccc(CN2CCN(C(=O)COc3cccc(C)c3)CC2)c(OC)c1`, > 40 µM (inactive); in that of `CCCCCCCC(=O)N/N=C(/C)c1c(O)cc(C)oc1=O`, > 40 µM (inactive).
As to `O=c1cc(O)c2c(=O)n(-c3ccccc3)c3c(c2o1)CCCCCC3`, the EC50 was > 40 µM (inactive).
In the case of `COC(=O)C1=C(C(=O)OC)C(c2ccccc2O)c2sc(=O)[nH]c2S1` (configuration not stated) it was > 40 µM (inactive); in that of `c1ccc(-c2cc(N3CCOCC3)nc3ccccc23)cc1`, > 40 µM (inactive); in that of `CN1C(=O)C(C(=O)Nc2ccccc2F)c2ccccc21` (configuration not stated), > 40 µM (inactive).
The figure for `CN(C)/C=C(/C(=O)c1ccc(Cl)cc1Cl)S(=O)(=O)c1ccc(Cl)cc1` is > 40 µM (inactive); for `O=S1(=O)C=C(Sc2nc3ccccc3s2)c2ccccc21` it is > 40 µM (inactive).
Take `O=C(Cn1nc(Cl)nc1Cl)c1cc2ccccc2oc1=O`: the EC50 was > 40 µM (inactive).
The figure for `CCCCCCC1C(C#N)=C(N)OC2=C1C(=O)CC(C)(C)C2` (configuration not stated) is > 40 µM (inactive); for `CCOc1ccc(N=Cc2c(O)c3ccccc3oc2=O)cc1` it is > 40 µM (inactive); for `CCOC(=O)c1c(C)oc2c1c(C(c1cccnc1)N1CCOCC1)c(O)c1ccccc12` (configuration not stated) it is > 40 µM (inactive).
As for `CCCCC(CC)Cn1c2nc3ccccc3nc2c2c(=N)oc(C)nc21` (configuration not stated), the EC50 was > 40 µM (inactive).
In the case of `CC(=O)Oc1ccccc1N1C(=O)c2ccc(C(=O)O)cc2C1=O` it was > 40 µM (inactive); in that of `Cc1ccccc1NC(=O)c1ccccc1`, > 40 µM (inactive); in that of `COc1ccc(/C=C(/C(=O)c2ccc(Cl)cc2Cl)n2cncn2)cc1`, > 40 µM (inactive).
In the case of `COc1ccc(NCc2nc3ccccc3n2CCOc2ccccc2)cc1` it was > 40 µM (inactive); in that of `O=C(NCc1ccc(Cl)cc1)c1ccccc1CCc1ccccc1`, > 40 µM (inactive); in that of `O=C(Nc1scc(-c2cccs2)c1C(=O)O)c1cccs1`, > 40 µM (inactive).
Consider `C=C(CC)C(=O)c1ccc(OCC(=O)O)c(Cl)c1Cl`, for which the EC50 was > 40 µM (inactive).
On to `Cc1ccc2[nH]c(=O)c(CN(CCO)Cc3nnnn3CCc3ccccc3)cc2c1`, for which the EC50 is > 40 µM (inactive).
The figure for `CC(C)(C)C(=O)/C(=C/c1cccc([N+](=O)[O-])c1)n1cncn1` is > 40 µM (inactive).
For `CS(=O)(=O)c1nc(-c2ccccc2)cc(C(F)(F)F)n1`, the EC50 is > 40 µM (inactive).
In the case of `O=S1(=O)C=C(Sc2nnc(-c3ccccc3)o2)c2ccccc21` it was > 40 µM (inactive).
Consider `CN1C(=O)C(Cl)(Cl)C(=O)c2ccccc21`, for which the EC50 was > 40 µM (inactive).
As for `CCOC(=O)C1CCN(C(c2cc3ccc(C)c(C)c3[nH]c2=O)c2nnnn2C2CCCCC2)CC1` (configuration not stated), the EC50 is > 40 µM (inactive).
The figure for `O=C1NCC2=C1C(c1ccc(Br)cc1)Nc1ccccc1N2` (configuration not stated) is > 40 µM (inactive).
`COc1ccccc1C(=O)Oc1ccc2c(c1)O/C(=C\c1ccncc1)C2=O`: the EC50 was > 40 µM (inactive).
The figure for `O=C(CCl)c1ccc(Cc2ncc(C(F)(F)F)cc2Cl)s1` is > 40 µM (inactive).
On to `CCOC(=O)c1c(C)oc2c1c(C(c1cccnc1)N1CCCCC1)c(O)c1ccccc12` (configuration not stated), for which the EC50 was > 40 µM (inactive).
In the case of `Cc1cc(C)c(S(=O)(=O)c2ccccc2)c(OC(=O)c2cc(F)c(F)cc2Cl)n1` it was > 40 µM (inactive).
Regarding `CCCCCCCCn1c(=O)c(C(=O)OCC)c(O)c2ccccc21`, the EC50 is > 40 µM (inactive).
In the case of `CNC(=O)/C(C#N)=C/c1c(F)cccc1Cl` it was > 40 µM (inactive); in that of `O=C1CC(c2ccccc2)CC(O)=C1C=NCCN1CCN(C(=O)Nc2ccccc2)CC1` (configuration not stated), > 40 µM (inactive); in that of `Cc1ccc(/C(O)=C2\C(=O)C(=O)N(c3cc(C)on3)C2c2cccc(Cl)c2)cc1` (configuration not stated), > 40 µM (inactive).
Consider `CCC(C)OC(=O)C1C(c2ccccc2)C(C(=O)O)C1c1ccccc1` (configuration not stated), for which the EC50 is > 40 µM (inactive).
Consider `O=C(COc1ccc([N+](=O)[O-])cc1)N(Cc1ccccc1)Cc1ccccc1`, for which the EC50 was > 40 µM (inactive).
In the case of `O=C1c2ccccc2C(=O)N1Cc1nc2ccccc2c(=O)n1-c1ccc(Br)cn1`, the EC50 was > 40 µM (inactive).
As for `O=C1c2ccccc2C(=O)N1c1ncc(Cc2ccc(Cl)cc2)s1`, the EC50 was > 40 µM (inactive).
On to `Cc1ccc(S(=O)(=O)Nc2ccccc2/C=N/c2nc3ccccc3n2C(C)C)cc1`, for which the EC50 is > 40 µM (inactive).
With `COC(=O)CC1=NN(c2ccccc2)C(=O)/C1=C\c1ccc(OC)cc1`, the EC50 is > 40 µM (inactive).
For the molecule `Cc1ccc2nc(-c3ccc(NC(=O)CSc4ccccc4)cc3)[nH]c2c1`, the EC50 was > 40 µM (inactive).
The figure for `COc1ccc2c(=O)c3c(=O)n(Cc4ccco4)c(-c4ccc(C)cc4)nc3oc2c1` is > 40 µM (inactive); for `CCCc1[nH]nc2c1C(c1ccc(Br)s1)C(C#N)=C(N)O2` (configuration not stated) it is > 40 µM (inactive); for `Oc1ccc2ccccc2c1/C=N/c1nccs1` it is > 40 µM (inactive).
The figure for `CN(C)/C=C(/C(=O)c1ccc(Cl)cc1Cl)S(=O)(=O)c1ccccc1` is > 40 µM (inactive).
The figure for `COC(=O)c1cc(OC)c(OC)cc1NC(=S)Nc1cccc(C(C)=O)c1` is > 40 µM (inactive).
In the case of `CN(C)c1ccc(S(=O)(=O)c2ccc(Cl)cc2)cc1`, the EC50 is > 40 µM (inactive).
`CCCCCC(=O)N1CCN(CCN=CC2=C(O)CC(c3ccc(OC)c(OC)c3)CC2=O)CC1` (configuration not stated): the EC50 is > 40 µM (inactive).
Turning to `Cc1ccc(S(=O)(=O)C(C#N)c2nc3ccccc3nc2N2CCCC2)cc1` (configuration not stated), the EC50 is > 40 µM (inactive).
In the case of `COc1ccc(C2CC23N=C(c2ccccc2)OC3=O)cc1` (configuration not stated) it was > 40 µM (inactive).
